Holding throughout (test): biochemical
The target of one assay is DRB4*0101 (Homo sapiens, UniProt P01903+P13762, G164S). The assay is classed as binding.
In another assay the target is DRB5*0101 (Homo sapiens, UniProt P01903+Q30154).
The target of another assay is DRB1*0405 (Homo sapiens, UniProt P01903+P01911, A100R/A169T/D86S/F76Y/I96L/K127E/L162R/M171V/N62H/P40V/Q125Y/R42H/S133A/S149N/S66Y/V115G/V209L/W38E). Type of assay: binding.
Another assay concerns the target DRB1*1101 (Homo sapiens, UniProt P01903+P01911, A100R/A169T/A87E/I96F/K41T/L162R/M171V/P40S/Q125H/Q178H/Q39Y/Q99D/R42S/S66Y/T262R/V115G/W38E).
Another assay addresses DRB1*0802 (Homo sapiens, UniProt P01903+P01911, A100R/A103L/A169T/F76Y/H45Y/I96F/K41T/L162R/M171V/P40S/Q125H/Q178H/Q39Y/Q99D/R218S/R42G/S66Y/V115G/W38E). Type of assay: binding.
Another assay has as its target DRB1*0901 (Homo sapiens, UniProt P01903+P01911, A100R/A103E/D57H/D86V/F55Y/F60I/F76Y/I96F/K127E/L162R/M171V/P40D/Q125H/Q99R/R33Q/R42F/S133A/S66N/T210M/V115G/W38K/Y107V/Y59G/Y89S). Type of assay: binding.
In another assay the target is DR4w4 (DRB1*0401) (Homo sapiens, UniProt P01903+P01911, A100K/A169T/F76Y/I96L/K127E/L162R/M171V/N62H/P40V/Q125Y/R42H/S133A/S149N/S66Y/V115G/V209L/W38E). The assay is classed as binding.
The target in the next assay is DR7 (DRB1*0701) (Homo sapiens, UniProt P01903+P01911, A100R/A102G/A103Q/D57E/D86V/E43K/F76Y/K127E/L162R/M171V/P40G/Q125H/Q99D/R33Q/R42Y/R54Q/S133A/S66F/T210M/V115G/Y107V/Y59L/Y89S). Type of assay: binding.
In another assay the target is DR1 (DRB1*0101) (Homo sapiens, UniProt P01903+P01911, A100R/D57E/F55L/F60I/F76Y/I96L/L162R/M171V/P40L/Q125E/R42F/V115G/Y59C). Type of assay: binding.
In the next assay the target is DRB1*1302 (Homo sapiens, UniProt P01903+P01911, A100E/A169T/K41T/L162R/M171V/P40S/Q125H/Q178H/Q39Y/Q99D/R42S/S66N/T262R/V115G/W38E/Y61H). Type of assay: binding.
In a further assay the target is DRB1*1501 (Homo sapiens, UniProt P01903+P01911). The assay is classed as binding.

The values below come from patent publication US9340577B2, “HLA binding motifs and peptides and their uses” (priority 1992, dated 2016).

Like-named read-outs stand apart in the source and are kept apart here. No end group written: not given here.

DRB1*1302, sequence (P01903 26-254 limits assumed, other chains not shown): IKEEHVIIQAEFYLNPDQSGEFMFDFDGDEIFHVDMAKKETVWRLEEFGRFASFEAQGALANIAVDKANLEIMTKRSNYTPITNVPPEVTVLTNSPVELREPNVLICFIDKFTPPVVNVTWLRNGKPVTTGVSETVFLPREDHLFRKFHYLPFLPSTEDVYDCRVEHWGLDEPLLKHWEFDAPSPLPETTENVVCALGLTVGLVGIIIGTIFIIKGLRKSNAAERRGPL
DRB1*1101, sequence (P01903 26-254 limits assumed, other chains not shown): as above

Regarding ALSVSKAKALQAIEL [Peptide 89.0170], the IC50 is greater than 20 µM at DRB4*0101; greater than 20 µM at DRB5*0101 (Binding affinity DRB5 *0101); 8.43 µM at DRB1*0405; greater than 20 µM on DRB1*1101 (Binding affinity DRB1 *1101); greater than 20 µM on DRB1*0802; 4.33 µM at DRB1*0901. Further, the IC50 at DR4w4 (DRB1*0401) was 0.281 µM; against DR7 (DRB1*0701) it was 3.21 µM; against DR1 (DRB1*0101), 0.084 µM; against DRB1*1302, 1.63 µM; against DRB1*1501 it was greater than 20 µM.
As for DIAYKYAQLADVNSN [Peptide 89.0108], the IC50 was 0.295 µM against DRB4*0101; 0.15 µM at DRB5*0101 (Binding affinity DRB5 *0101); 2.2 µM at DRB1*0405; 12.6 µM at DRB1*1101 (Binding affinity DRB1 *1101); greater than 20 µM against DRB1*0802; 10.6 µM at DRB1*0901. The 50% inhibitory concentration (IC50) against DR4w4 (DRB1*0401) is 0.088 µM; against DR7 (DRB1*0701), 1.02 µM; on DR1 (DRB1*0101), 4.73 µM; on DRB1*1302, greater than 20 µM; against DRB1*1501, greater than 20 µM.
As for DRGIIILLLIRFRCS [Peptide 89.0062], the half-maximal inhibitory concentration (IC50) on DRB4*0101 is 7.56 µM; at DRB5*0101 (Binding affinity DRB5 *0101), greater than 20 µM; on DRB1*0405 it was 7.18 µM; at DRB1*1101 (Binding affinity DRB1 *1101), 8.28 µM; against DRB1*0802, 0.085 µM; against DRB1*0901 it was greater than 20 µM. For the same sequence, the IC50 on DR4w4 (DRB1*0401) is greater than 20 µM; at DR7 (DRB1*0701) it was greater than 20 µM; against DR1 (DRB1*0101), greater than 20 µM; against DRB1*1302, greater than 20 µM; against DRB1*1501, 14.4 µM.
For DSEIAYKYAQLADTN [Peptide 89.0012], the 50% inhibitory concentration (IC50) against DRB4*0101 worked out at 0.275 µM; at DRB5*0101 (Binding affinity DRB5 *0101), 19.6 µM; at DRB1*0405 it was 11 µM; at DRB1*1101 (Binding affinity DRB1 *1101), 3.54 µM; against DRB1*0802, 1.12 µM; at DRB1*0901 it was 1.93 µM. The IC50 against DR4w4 (DRB1*0401) is 1.95 µM; at DR7 (DRB1*0701), greater than 20 µM; against DR1 (DRB1*0101), 0.734 µM; against DRB1*1302 it was greater than 20 µM; on DRB1*1501, 3.44 µM.
On to DSQIAFQYAQLADVD [Peptide 89.0130], for which the half-inhibitory concentration (IC50) against DRB4*0101 was 0.014 µM; on DRB5*0101, 17.1 µM; against DRB1*0405, 9.99 µM; against DRB1*1101 it was greater than 20 µM; against DRB1*0802, greater than 20 µM; against DRB1*0901 it was greater than 20 µM. Moreover, the IC50 on DR4w4 (DRB1*0401) is 3 µM; against DR7 (DRB1*0701), greater than 20 µM; at DR1 (DRB1*0101), greater than 20 µM; on DRB1*1302 it was greater than 20 µM; at DRB1*1501, greater than 20 µM.
For EVHVGGQVIVCPASV [Peptide 90.0015], the IC50 was 0.389 µM against DRB4*0101; greater than 20 µM on DRB5*0101 (Binding affinity DRB5 *0101); 6.78 µM against DRB1*0405; greater than 20 µM on DRB1*1101 (Binding affinity DRB1 *1101); greater than 20 µM against DRB1*0802; 2.6 µM on DRB1*0901. Moreover, the half-maximal inhibitory concentration (IC50) is 2.1 µM against DR4w4 (DRB1*0401); 0.187 µM against DR7 (DRB1*0701); 4.09 µM against DR1 (DRB1*0101); 0.152 µM at DRB1*1302; greater than 20 µM at DRB1*1501.
Regarding EVHVGGQVIVCPTSI [Peptide 89.0184], the IC50 was greater than 20 µM against DRB4*0101; greater than 20 µM at DRB5*0101 (Binding affinity DRB5 *0101); 0.557 µM at DRB1*0405; greater than 20 µM on DRB1*1101 (Binding affinity DRB1 *1101); greater than 20 µM against DRB1*0802; greater than 20 µM at DRB1*0901. Moreover, the IC50 against DR4w4 (DRB1*0401), against DR7 (DRB1*0701), on DR1 (DRB1*0101), at DRB1*1302 and against DRB1*1501 was greater than 20 µM throughout.
As to GKSYFGMSLISFLQG [Peptide 89.0056], the IC50 at DRB4*0101 was 1.96 µM; at DRB5*0101 (Binding affinity DRB5 *0101) it was greater than 20 µM; on DRB1*0405 it was 1.23 µM; at DRB1*1101 (Binding affinity DRB1 *1101), 0.9 µM; at DRB1*0802, 6.02 µM; against DRB1*0901 it was 0.512 µM. Besides, the IC50 against DR4w4 (DRB1*0401) came to 1.09 µM; on DR7 (DRB1*0701), 0.284 µM; against DR1 (DRB1*0101), 0.17 µM; on DRB1*1302, 1.34 µM; against DRB1*1501, 4.79 µM.
As to HCTLYTAVSSTWHWT [Peptide 89.0157], the concentration for half-maximal inhibition (IC50) against DRB4*0101, on DRB5*0101 (Binding affinity DRB5 *0101), against DRB1*0405, on DRB1*1101 (Binding affinity DRB1 *1101), against DRB1*0802 and against DRB1*0901 was greater than 20 µM in each case. Besides, the half-inhibitory concentration (IC50) at DR4w4 (DRB1*0401) was 19 µM; against DR7 (DRB1*0701) it was greater than 20 µM; against DR1 (DRB1*0101), 2.89 µM; against DRB1*1302 it was 0.867 µM; against DRB1*1501, greater than 20 µM.
For the sequence IHFLKGCIISYVNSK [Peptide 89.0147], the 50% inhibitory concentration (IC50) was 1.36 µM against DRB4*0101; greater than 20 µM on DRB5*0101 (Binding affinity DRB5 *0101); greater than 20 µM at DRB1*0405; greater than 20 µM at DRB1*1101 (Binding affinity DRB1 *1101); greater than 20 µM at DRB1*0802; greater than 20 µM on DRB1*0901. Further, the IC50 was 3.84 µM against DR4w4 (DRB1*0401); 6.49 µM against DR7 (DRB1*0701); greater than 20 µM at DR1 (DRB1*0101); greater than 20 µM against DRB1*1302; greater than 20 µM on DRB1*1501.
For the sequence LIKFFQGSVISFVNS [Peptide 89.0135], the concentration for half-maximal inhibition (IC50) was 3.73 µM on DRB4*0101; greater than 20 µM on DRB5*0101; greater than 20 µM on DRB1*0405; greater than 20 µM at DRB1*1101; 7.98 µM against DRB1*0802; greater than 20 µM at DRB1*0901. Moreover, the IC50 is greater than 20 µM against DR4w4 (DRB1*0401); greater than 20 µM at DR7 (DRB1*0701); greater than 20 µM at DR1 (DRB1*0101); 0.071 µM at DRB1*1302; greater than 20 µM against DRB1*1501.
As for LKRFLQGIPKKNCIL [Peptide 89.0016], the 50% inhibitory concentration (IC50) against DRB4*0101 is 1.7 µM; on DRB5*0101 (Binding affinity DRB5 *0101), 0.0055 µM; against DRB1*0405, greater than 20 µM; at DRB1*1101 (Binding affinity DRB1 *1101) it was 2.54 µM; against DRB1*0802 it was 3.29 µM; at DRB1*0901 it was 7.67 µM. In addition, the IC50 against DR4w4 (DRB1*0401) is 0.944 µM; against DR7 (DRB1*0701), greater than 20 µM; against DR1 (DRB1*0101), 0.069 µM; at DRB1*1302, greater than 20 µM; against DRB1*1501, 3.62 µM.
For LKTVKIPNTVQVIQG [Peptide 90.0017], the 50% inhibitory concentration (IC50) is greater than 20 µM against DRB4*0101; greater than 20 µM at DRB5*0101 (Binding affinity DRB5 *0101); 19.2 µM against DRB1*0405; greater than 20 µM at DRB1*1101 (Binding affinity DRB1 *1101); greater than 20 µM on DRB1*0802; greater than 20 µM at DRB1*0901. Further, the concentration for half-maximal inhibition (IC50) against DR4w4 (DRB1*0401) is greater than 20 µM; on DR7 (DRB1*0701), 0.777 µM; on DR1 (DRB1*0101), 8.18 µM; on DRB1*1302, 0.033 µM; against DRB1*1501, greater than 20 µM.
As for LSQVKIPKTITVSTG [Peptide 89.0158], the IC50 against DRB4*0101 was greater than 20 µM; on DRB5*0101 (Binding affinity DRB5 *0101), greater than 20 µM; against DRB1*0405, greater than 20 µM; on DRB1*1101 (Binding affinity DRB1 *1101), 3.63 µM; against DRB1*0802 it was greater than 20 µM; on DRB1*0901, 5.48 µM. The IC50 at DR4w4 (DRB1*0401) was 0.373 µM; on DR7 (DRB1*0701), 5.83 µM; against DR1 (DRB1*0101), 4.5 µM; at DRB1*1302 it was greater than 20 µM; against DRB1*1501, 1.91 µM.
As to LVQIKCPPLLITTNI [Peptide 89.0138], the 50% inhibitory concentration (IC50) was 0.018 µM at DRB4*0101; greater than 20 µM against DRB5*0101; greater than 20 µM at DRB1*0405; greater than 20 µM against DRB1*1101; greater than 20 µM against DRB1*0802; greater than 20 µM against DRB1*0901. For the same sequence, the half-inhibitory concentration (IC50) on DR4w4 (DRB1*0401), on DR7 (DRB1*0701), at DR1 (DRB1*0101), against DRB1*1302 and against DRB1*1501 was greater than 20 µM in each case.

Broadly, the IC50 is the concentration needed to halve the response being measured. Read a high IC50 as weaker potency in that assay.
